The RepoRT retention time repository (doi:10.1016/j.jhazmat.2019.121712)

Experiment: Thermo Scientific Acclaim RSLC 120 C18, 100 × 2.1 mm, 2.2 µm, 30 °C; A: 90% water + 10% methanol + 0.01% formic acid + 5 mM ammonium formate; B: methanol + 0.01% formic acid + 5 mM ammonium formate; gradient (min/%B) 0.1/1 3/39 14/99.9 16/99.9
Conditions: stereoisomer not certain

Row | Structure (SMILES) | LC retention time [min]
1 | COc1ccc2c3c1OC1C(=O)CCC4(O)C(C2)NCCC314 (centres undefined) | 3.71
2 | O=C(O)c1ccc2n[nH]nc2c1 | 3.81
3 | CN(C)C(=O)Nc1ccccc1 | 5.12
4 | CN1CCN2c3ncc(O)cc3Cc3ccccc3C2C1 (centres undefined) | 4.54
5 | CC(=O)Nc1ccc(S(=O)(=O)Nc2ncccn2)cc1 | 4.11
6 | CC12CCC(=O)C=C1CCC1C2C(O)CC2(C)C1CCC2(O)C(=O)CO (centres undefined) | 7.84
7 | c1ccc(CN(CC2=NCCN2)c2ccccc2)cc1 | 6.41
8 | Nc1cc(-c2ccncc2)c[nH]c1=O | 2.88
9 | CN1CCCCC1Cn1cc(C(=O)C23CC4CC(CC(C4)C2)C3)c2ccccc21 (centres undefined) | 9.94
10 | COc1ccc(OC)c(CC(C)N)c1 (centres undefined) | 4.78
11 | CCCCn1cc(C(=O)c2cccc3ccccc23)c2cc(O)ccc21 | 11.3
12 | CCN(CC)CC(=O)Nc1c(C)cccc1C(=O)OC | 4.59
13 | CCCCc1c(C)nc(NCC)nc1OS(=O)(=O)N(C)C | 10.5
14 | Cc1cc(C(C)(C)C)c(O)c(C)c1CC1=NCCN1 | 6.99
15 | COC(=O)C1C(OC(=O)c2ccccc2)CC2CCC1N2C (centres undefined) | 4.84
16 | COP(=S)(NC(C)C)Oc1ccccc1C(=O)OC(C)C (centres undefined) | 11.7
17 | CC(Cc1ccccc1)N1C=C(NC(=O)N=C2C=CC(=O)C=C2)ON1 (centres undefined) | 7.24
18 | CNCCOC(c1ccccc1)c1ccccc1C (centres undefined) | 7.54
19 | NCC(O)COc1ccccc1C(=O)CCc1ccccc1.O=C(O)C(=O)O (centres undefined) | 7.09
20 | CC12CCC(=O)C=C1CCC1C2CCC2(C)C(C(=O)COC(=O)CCc3ccccc3)CCC12 (centres undefined) | 13
21 | CN(C)CC1CCCCC1(O)c1cccc(O)c1 (centres undefined) | 4.06
22 | O=[N+]([O-])c1cncn1CCN1CCOCC1 | 4.09
23 | CC(N)C(=O)c1ccccc1 (centres undefined) | 3.59

Row | Structure (SMILES) | LC retention time [min]
24 | CC(Cc1ccc2c(c1)OCO2)N(C)C (centres undefined) | 4.08
25 | CCCNC1CCc2nc(N)sc2C1 (centres undefined) | 2.64
26 | CC(C)(C)c1ccc(C(O)CCCN2CCC(C(O)(c3ccccc3)c3ccccc3)CC2)cc1 (centres undefined) | 9.69
27 | CCCN1CCCCC1C(=O)Nc1c(C)cccc1C (centres undefined) | 5.39
28 | CCOC(=O)C(SP(=S)(OC)OC)c1ccccc1 (centres undefined) | 10.7
29 | COC(=O)c1ccccc1CS(=O)(=O)NC(=O)Nc1nc(OC)cc(OC)n1 | 8.77
30 | CC1(C)C(C(=O)c2cn(CC3CCOCC3)c3ccccc23)C1(C)C | 11.4
31 | CSc1nnc(C(C)(C)C)c(=O)[nH]1 | 7.46
32 | OCCN(CCO)c1nc(N2CCCCC2)c2nc(N(CCO)CCO)nc(N3CCCCC3)c2n1 | 9.36
33 | CNC(=O)ON=C(C)SC | 4.16
34 | CCN(CC)C(=O)N1CCN(C)CC1 | 3.16
35 | CCOC(=O)CCN(SN(C)C(=O)Oc1cccc2c1OC(C)(C)C2)C(C)C | 11.9
36 | COCC(NC(C)=O)C(=O)NCc1ccccc1 (centres undefined) | 5.09
37 | CN1CC(=O)N2C(Cc3c([nH]c4ccccc34)C2c2ccc3c(c2)OCO3)C1=O (centres undefined) | 8.26
38 | NC(N)=NS(=O)(=O)c1ccc(N)cc1 | 1.93
39 | Nc1nc(N)nc(NC2CC2)n1 | 2.78
40 | CNC(=C[N+](=O)[O-])NCCSCc1csc(CN(C)C)n1 | 2.96
41 | CC(=O)Nc1ccc(S(=O)(=O)Nc2nc(C)cc(C)n2)cc1 | 4.59
42 | COCC(C)N(C(=O)C(=O)O)c1c(C)csc1C (centres undefined) | 6.36
43 | CCC(=C(c1ccccc1)c1ccc(OCCN(C)C)cc1)c1ccccc1 | 11
44 | c1ccc(C(CCN2CCCCC2)c2ccccc2)cc1 | 6.82
45 | CCc1cccc2c3c([nH]c12)C(CC)(CC(=O)O)OCC3 (centres undefined) | 10.6
46 | COc1ccc2c3c1OC1C(=O)CCC4(O)C(C2)N(C)CCC314 (centres undefined) | 3.61

Row | Structure (SMILES) | LC retention time [min]
47 | Cc1ccc(C(=O)c2cn(CCCCCO)c3ccccc23)c2ccccc12 | 10.6
48 | COCCOc1ccccc1S(=O)(=O)NC(=O)Nc1nc(OC)nc(OC)n1 | 6.36
49 | CCCCCCCCCc1ccc(OCCO)cc1 | 13.2
50 | CC(C)(C)NCC(O)c1ccc(O)c(CO)c1 (centres undefined) | 3.23
51 | CN1C(=O)C(O)CC1c1cccnc1 (centres undefined) | 3.13
52 | CCc1cc(OC)c(CC(C)N)cc1OC (centres undefined) | 6.88
53 | COc1cc(OC)nc(Oc2cccc(Oc3nc(OC)cc(OC)n3)c2C(=O)O)n1 | 8.86
54 | CN(CCOc1ccc(CC2SC(=O)NC2=O)cc1)c1ccccn1 (centres undefined) | 6.98
55 | CC(C)OP(=O)(OC(C)C)SCc1ccccc1 | 10.6
56 | CCN(CC)CCOC(=O)C(c1ccccc1)C1CCCCC1 (centres undefined) | 9.19
57 | CNC(=O)N(C)c1nnc(C(C)(C)C)s1 | 7.25
58 | CN1CCC23c4c5ccc(OCCN6CCOCC6)c4OC2C(O)C=CC3C1C5 (centres undefined) | 2.73
59 | CSc1nc2ccccc2s1 | 9.79
60 | CCOP(=S)(Oc1cnc(C(C)(C)C)nc1)OC(C)C (centres undefined) | 12.3
61 | CNC(=O)ON=CC(C)(C)S(C)(=O)=O | 3.75
62 | CC(C)OC(=O)Nc1ccc2nc(-c3cscn3)[nH]c2c1 | 7.66
63 | O=C(O)C1C2CCC(O2)C1C(=O)O (centres undefined) | 3.2
64 | COc1ccc2[nH]cc(CC(C)N)c2c1 (centres undefined) | 4.36
65 | CNC(C)C(=O)c1ccc(C)cc1 (centres undefined) | 4.49
66 | CCCc1nc(C)c2c(=O)[nH]c(-c3cc(S(=O)(=O)N4CCN(CCO)CC4)ccc3OCC)nn12 | 8.05
67 | CNC(=O)CSP(=S)(OC)OC | 5.23
68 | CNC(C)C(O)c1ccc(O)cc1 (centres undefined) | 2.05
69 | CCOC(=O)C(CCc1ccccc1)NC(C)C(=O)N1CC2(CC1C(=O)O)SCCS2 (centres undefined) | 8.23

Row | Structure (SMILES) | LC retention time [min]
70 | CP(=O)(O)CCC(N)C(=O)O (centres undefined) | 1.44
71 | Cc1ccc(-c2nc3ccc(C)cn3c2CC(=O)N(C)C)cc1 | 5.8
72 | CC(Cc1ccccc1)NCCC#N (centres undefined) | 4.14
73 | CC12C=CC(=O)C=C1CCC1C2C(=O)CC2(C)C1CCC2(O)C(=O)CO (centres undefined) | 7.85
74 | CC(=O)CCCCn1c(=O)c2c(ncn2C)n(C)c1=O | 5.23
75 | CN(C)CCOC(C)(c1ccccc1)c1ccccn1 (centres undefined) | 5.18
76 | COc1cc(NS(=O)(=O)c2ccc(N)cc2)nc(OC)n1 | 5.6
77 | CC(CN(C)C)CN1c2ccccc2Sc2ccc(C#N)cc21 (centres undefined) | 7.52
78 | CCCCN(CC)C(=O)SCCC | 11.5
79 | Cc1cc(NS(=O)(=O)c2ccc(N)cc2)no1 | 4.6
80 | CN1CCOC(c2ccccc2)c2ccccc2C1 (centres undefined) | 5.67
81 | O=C(O)Cc1cccc2ccccc12 | 7.76
82 | CCCCCn1cc(C(=O)c2ccccc2OC)c2ccccc21 | 11.2
83 | COC1CC(CC2CCC(C)C(C(C)C(=O)O)O2)OC2(OC(C)(C3CCC(C)(C4OC(C5OC(O)(CO)C(C)CC5C)CC4C)O3)CC2C)C1C (centres undefined) | 13.9
84 | CCc1cnc(C2=NC(C)(C(C)C)C(=O)N2)c(C(=O)O)c1 (centres undefined) | 5.6
85 | CCNC(C)C(=O)c1ccc2c(c1)OCO2 (centres undefined) | 4.04
86 | Cc1ccc(S(=O)(=O)NC(=O)NC2C3CCC(C)(C2O)C3(C)C)cc1 (centres undefined) | 9.79
87 | CC1CCCC(C)N1CCCC(O)(c1ccccc1)c1ccccn1 (centres undefined) | 6.01
88 | CCC(=O)OC(Cc1ccccc1)(c1ccccc1)C(C)CNC (centres undefined) | 7.84
89 | CCCN(CCC)c1c([N+](=O)[O-])cc(C(C)C)cc1[N+](=O)[O-] | 13.2
90 | CNC(C)Cc1cccs1 (centres undefined) | 3.69
91 | CNCC12CCC(c3ccccc31)c1ccccc12 | 6.52
92 | Cc1ccsc1C=CC1=NCCCN1C | 4.36

Row | Structure (SMILES) | LC retention time [min]
93 | Cc1cc(O)ccc1CC(C)N (centres undefined) | 2.98
94 | CN(C)NC(=O)CCC(=O)O | 6.28
95 | CNC(=O)ON=C(SC)C(=O)N(C)C | 3.77
96 | CC(C1=C(CCN(C)C)Cc2ccccc21)c1ccccn1 (centres undefined) | 6.86
97 | CN1CCCC1c1cccnc1 (centres undefined) | 2.41
98 | COc1cccc2c(C(=O)NC3C4(C)CCC(C4)C3(C)C)cn(CCN3CCOCC3)c12 (centres undefined) | 11.7
99 | NC1CC1c1ccccc1 (centres undefined) | 4.27
100 | CCc1cc2c(s1)-n1c(C)nnc1CN=C2c1ccccc1 | 8.43
101 | CCCCCn1c(C)c(C(=O)c2cccc3ccccc23)c2ccccc21 | 12.6
102 | CCC1OC(=O)C(C)C(OC2CC(C)(OC)C(O)C(C)O2)C(C)C(OC2OC(C)CC(N(C)C)C2O)C(C)(O)CC(C)CN(C)C(C)C(O)C1(C)O (centres undefined) | 5.98
103 | CCN(CC)C(=O)c1cccc(C)c1 | 8.2
104 | COc1ccc(CC(C)NCC(O)c2ccc(O)c(NC=O)c2)cc1 (centres undefined) | 4.79
105 | CCNC(C)Cc1ccc2c(c1)OCO2 (centres undefined) | 4.39
106 | O=C(c1cccc2ccccc12)c1cn(CCN2CCOCC2)c2ccccc12 | 9.88
107 | COC(=O)C1=C(C)NC(C)=C(C(=O)OC(C)(C)CN(C)CCC(c2ccccc2)c2ccccc2)C1c1cccc([N+](=O)[O-])c1 (centres undefined) | 11.1
108 | CSC1=NC(C)(c2ccccc2)C(=O)N1Nc1ccccc1 (centres undefined) | 9.22
109 | CN1CCC(=C2c3ccccc3C=Cc3ccccc32)CC1 | 7.89
110 | CNC(=O)Oc1ccc(N(C)C)c(C)c1 | 5.15
111 | CCn1cc(C(=O)O)c(=O)c2ccc(C)nc21 | 7.06
112 | CC1CCCCC1NC(=O)Nc1ccccc1 (centres undefined) | 9.37
113 | CCOP(=O)(NC(C)C)Oc1ccc(S(C)(=O)=O)c(C)c1 (centres undefined) | 7.21
114 | CCCNC(C)C(=O)Nc1c(C)csc1C(=O)OC (centres undefined) | 4.69
